In brackets after ≈: the same amount, converted by molar mass. Structures can show the parent of a compound that is named as a salt. Where two headings read alike, the source gives them in different places.
Legend:
[1] = biological target: HIV reverse transcriptase (Human immunodeficiency virus type 1 group M subtype B, UniProt P04585); experiment: biochemical; conditions: for IC50: HIV reverse transcriptase inhibitory activity (IC50, μg/ml) (A), 37° C., 30 minutes, HIV lysate; for Enzyme inhibitory activity/cytotoxicity ratio (A)/(B): ratio of IC50 HIV reverse transcriptase (A) to IC50 P-388 (B)
Protocol: (a) After treating a supernatant of a culture of HIV-infected T4-cells (Molt 4/HTLV 1116/H9) with 9.5% polyethylene glycol for 3 hours, the supernatant was centrifuged at 2500 rpm for 30 minutes to obtain a precipitate. This precipitate was lysed with a mixture comprising 33.3% glycerol, […] tris-HCl (pH 7.5), 533 mM KCl, 0.32% Triton X-100 and 3.3 mM dithiothreitol, so as to prepare an HIV lysate (2.5×10^6 PFU/ml) The activity of the reverse transcriptase present in the HIV lysate thus prepared was determined in terms of the up-take rate of [α-^32 P]dATP during the synthesis of DNA, with using rabbit-β-globin mRNA and oligo dT as the template and primer, respectively. Thus, 1 μl of the HIV lysate was added to 9 μl of an enzymatic reaction solution comprising 50 mM tris-HCl (pH 8.3), 70 mM KCl, 10 mM MgCl2, 30 mM mercaptoethanol, 90 nM dNTPs, 3.3 μg/ml oligo dT, 8.3 mU/ml human placenta RNase inhibitor, 5 μg/ml β-globin mRNA, 0.14 mCi/ml [α-^32 P]dATP. After incubating the resultant mixture at 37° C. for 30 minutes, 10% aqueous trichloroacetic acid (TCA) was added to terminate the reaction.
After completion of the reaction, the whole reaction mixture was placed on a nitrocellulose membrane filter so as to adsorb the resultant DNA into the filter. The filter was then washed with 5% TCA and 20 mM sodium pyrophosphate to remove the unreacted [α-^32 P]dATP therefrom. The amount of the resultant DNA on the nitrocellulose membrane filter was calculated by measuring its radioactivity.
The novel anthracycline derivatives of this invention were separately added to the enzymatic reaction solution. The above experiment was repeated using the so prepared enzymatic reaction solution containing the anthracycline derivative as a test compound, so that the evaluation was made of IC50 of the test compound inhibitory to the activity of the HIV reverse transcriptase, namely the concentration of the test compound which was 50% inhibitory to the activity of the HIV reverse transcriptase.

[2] = test system: mouse lymphocytic leukemia P-388 cells; experiment: Cytotoxicity against P-388 cells (proliferation, MTT technique); assay type: cell-based; conditions: for IC50: Mus musculus, P388, 48 h, read-out: Cytotoxicity against P-388 cells (IC50, μg/ml) (B); for Cytotoxicity against P-388 cells (IC50, μg/ml) (B): 2880 min
Protocol: (b) On the other hand, the cytotoxicity was measured in the following manner. The novel anthracycline derivative of this invention was added to 5×10^3 cells of mouse lymphocytic leukemia P-388 in an incubation medium. After stirring, themixture was incubated Forty-eight hours later, the rate (%) of proliferation of the cells was measured by the MTT technique.

[3] = background statement; cited from earlier work

| SMILES | IC50 [1] [µM] | Enzyme inhibitory activity/cytotoxicity ratio (A)/(B) [1] | IC50 ([2]; P-388, 48 hours, MTT technique) [µg/mL] | Cytotoxicity against P-388 cells (IC50, μg/ml) (B) ([2]; P-388, 48 hours, MTT technique) [µg/mL] | IC50 [2] [µg/mL] | toxicity (in words) [3] |
| --- | --- | --- | --- | --- | --- | --- |
| CCCCCCCCCCCCCCCCCCOCc1ccc(C(=O)OCC(=O)[C@]2(O)Cc3c(O)c4c(c(O)c3[C@@H](O[C@H]3C[C@H](N)[C@H](O)[C@H](C)O3)C2)C(=O)c2c(OC)cccc2C4=O)cc1OCCCCCCCCCCCCCCCCCC [NOVA-5.HCl, 14-O-(3-n-octadecyloxy-4-n-octadecyloxymethylbenzoyl)adriamycin hydrochloride] | 18.4 | 6.9 | 3.2 | – | – | – |
| COc1cccc2c1C(=O)c1c(O)c3c(c(O)c1C2=O)C[C@@](O)(C(=O)CO)C[C@@H]3O[C@H]1C[C@H](N)[C@H](O)[C@H](C)O1 [ADM.HCl, reference compound] | – | – | – | 0.02 | – | – |
| COc1cccc2c1C(=O)c1c(O)c3c(c(O)c1C2=O)C[C@@](O)(C(=O)COC(=O)c1ccc2c(c1)OC(C)(C)OC2)C[C@@H]3O[C@H]1C[C@H](N)[C@H](O)[C@H](C)O1 [NOVA-7, 14-O-(0-isopropylidene-3-hydroxy4-hydroxymethylbenzoyl)adriamycin] | 31.3 | 121 | – | – | 0.19 (≈ 0.259 µM) | – |
| COCc1ccc(C(=O)OCC(=O)[C@]2(O)Cc3c(O)c4c(c(O)c3[C@@H](O[C@H]3C[C@H](N)[C@H](O)[C@H](C)O3)C2)C(=O)c2c(OC)cccc2C4=O)cc1OC [NOVA-1, 14-O-(3-methoxy-4-methoxymethylbenzoyl)adriamycin] | 41.6 | 103 | 0.29 (≈ 0.402 µM) | – | – | – |
| COc1ccc(C(=O)OCC(=O)[C@]2(O)Cc3c(O)c4c(c(O)c3[C@@H](O[C@H]3C[C@H](N)[C@H](O)[C@H](C)O3)C2)C(=O)c2c(OC)cccc2C4=O)cc1OC [NOVA-8, 14-O-(3,4-dimethoxybenzoyl)-adriamycin] | 26.8 | 58 | 0.33 (≈ 0.466 µM) | – | – | – |
| CCCCCCOc1ccc(C(=O)OCC(=O)[C@]2(O)Cc3c(O)c4c(c(O)c3[C@@H](O[C@H]3C[C@H](N)[C@H](O)[C@H](C)O3)C2)C(=O)c2c(OC)cccc2C4=O)cc1OCCCCCC [NOVA-9, 14-O-(3,4-di-n-hexyloxybenzoyl)adriamycin] | 23.6 | 7.8 | 2.6 (≈ 3.07 µM) | – | – | – |
| CCCCCCOc1ccc(C(=O)OCC(=O)[C@]2(O)Cc3c(O)c4c(c(O)c3[C@@H](O[C@H]3C[C@H](N)[C@H](O)[C@H](C)O3)C2)C(=O)c2c(OC)cccc2C4=O)cc1OCCCCCC [NOVA-9.HCl] | 17.7 | 4.8 | – | 3.1 | – | – |
| COc1cccc2c1C(=O)c1c(O)c3c(c(O)c1C2=O)C[C@@](O)(C(=O)CO)C[C@@H]3O[C@H]1C[C@H](N)[C@H](O)[C@H](C)O1 [ADM, adriamycin, reference compound] | – | – | 0.037 (≈ 0.0681 µM) | – | – | high toxicity |
| CCCCCCCCCCCOCc1ccc(C(=O)OCC(=O)[C@]2(O)Cc3c(O)c4c(c(O)c3[C@@H](O[C@H]3C[C@H](N)[C@H](O)[C@H](C)O3)C2)C(=O)c2c(OC)cccc2C4=O)cc1OCCCCCCCCCCC [NOVA-3.HCl, 14-O-(3-n-undecyloxy-4-n-undecyloxymethylbenzoyl)adriamycin hydrochloride] | 18.5 | 38 | 0.49 | – | – | – |
| CCCCC(=O)Oc1ccc(C(=O)OCC(=O)[C@]2(O)Cc3c(O)c4c(c(O)c3[C@@H](O[C@H]3C[C@H](N)[C@H](O)[C@H](C)O3)C2)C(=O)c2c(OC)cccc2C4=O)cc1OC(=O)CCCC [NOVA-12.HCl] | 13 | 50 | 0.22 | – | – | – |
| CCCCCCCCCCCOc1ccc(C(=O)OCC(=O)[C@]2(O)Cc3c(O)c4c(c(O)c3[C@@H](O[C@H]3C[C@H](N)[C@H](O)[C@H](C)O3)C2)C(=O)c2c(OC)cccc2C4=O)cc1OCCCCCCCCCCC [NOVA-10.HCl] | 16.2 | 8.9 | 1.8 | – | – | – |
| CCCCCCOc1ccc(C(=O)OCC(=O)[C@]2(O)Cc3c(O)c4c(c(O)c3[C@@H](O[C@H]3C[C@H](N)[C@H](O)[C@H](C)O3)C2)C(=O)c2c(OC)cccc2C4=O)cc1OCCCCCC [NOVA-9.1/2H2 SO4] | 27.1 | 4.4 | – | 5.2 | – | – |
| CCCCCCCCCCCCCCCCCCOc1ccc(C(=O)OCC(=O)[C@]2(O)Cc3c(O)c4c(c(O)c3[C@@H](O[C@H]3C[C@H](N)[C@H](O)[C@H](C)O3)C2)C(=O)c2c(OC)cccc2C4=O)cc1OCCCCCCCCCCCCCCCCCC [NOVA-11.HCl] | 84.4 | 53 | 1.9 | – | – | – |
| COc1cccc2c1C(=O)c1c(O)c3c(c(O)c1C2=O)C[C@@](O)(C(=O)COC(=O)c1ccc(CO)c(O)c1)C[C@@H]3O[C@H]1C[C@H](N)[C@H](O)[C@H](C)O1 [NOVA-6, 14-O-(3-hydroxy-4-hydroxymethylbenzoyl)adriamycin] | 79.3 | 370 | 0.15 (≈ 0.216 µM) | – | – | – |
| CCCCCCCCCCCOc1cc(C(=O)OCC(=O)[C@]2(O)Cc3c(O)c4c(c(O)c3[C@@H](O[C@H]3C[C@H](N)[C@H](O)[C@H](C)O3)C2)C(=O)c2c(OC)cccc2C4=O)ccc1CO [NOVA-4, 14-O-(3-n-undecyloxy-4-hydroxymethylbenzoyl)adriamycin] | 14.7 | 25 | 0.5 (≈ 0.59 µM) | – | – | – |
| CCCCCCOCc1ccc(C(=O)OCC(=O)[C@]2(O)Cc3c(O)c4c(c(O)c3[C@@H](O[C@H]3C[C@H](N)[C@H](O)[C@H](C)O3)C2)C(=O)c2c(OC)cccc2C4=O)cc1OCCCCCC [NOVA-2, 14-O-(3-n-hexyloxy-4-n-hexyloxymethylbenzoyl)adriamycin] | 19.7 | 35 | 0.48 (≈ 0.557 µM) | – | – | – |
